Measurements as given in ChEMBL document CHEMBL4828758, “Elucidation of Distinct Modular Assemblies of Smoothened Receptor by Bitopic Ligand Measurement” (J Med Chem, 2021).
Calls of active or inactive are those of the source. The rule behind the calls is not given here.

Experiments:
Format in all cases: functional, cell-based
[1] = target: Protein smoothened (Mus musculus) (UniProt P56726); test: Antagonist activity at SMO in mouse NIH3T3 cells preincubated for 2 hrs followed by SAG stimulation and measured after 24 hrs by Bright-Glo luciferase assay; settings: time 26.0 hrs
Chain of Protein smoothened (Mus musculus) (P56726 whole entry): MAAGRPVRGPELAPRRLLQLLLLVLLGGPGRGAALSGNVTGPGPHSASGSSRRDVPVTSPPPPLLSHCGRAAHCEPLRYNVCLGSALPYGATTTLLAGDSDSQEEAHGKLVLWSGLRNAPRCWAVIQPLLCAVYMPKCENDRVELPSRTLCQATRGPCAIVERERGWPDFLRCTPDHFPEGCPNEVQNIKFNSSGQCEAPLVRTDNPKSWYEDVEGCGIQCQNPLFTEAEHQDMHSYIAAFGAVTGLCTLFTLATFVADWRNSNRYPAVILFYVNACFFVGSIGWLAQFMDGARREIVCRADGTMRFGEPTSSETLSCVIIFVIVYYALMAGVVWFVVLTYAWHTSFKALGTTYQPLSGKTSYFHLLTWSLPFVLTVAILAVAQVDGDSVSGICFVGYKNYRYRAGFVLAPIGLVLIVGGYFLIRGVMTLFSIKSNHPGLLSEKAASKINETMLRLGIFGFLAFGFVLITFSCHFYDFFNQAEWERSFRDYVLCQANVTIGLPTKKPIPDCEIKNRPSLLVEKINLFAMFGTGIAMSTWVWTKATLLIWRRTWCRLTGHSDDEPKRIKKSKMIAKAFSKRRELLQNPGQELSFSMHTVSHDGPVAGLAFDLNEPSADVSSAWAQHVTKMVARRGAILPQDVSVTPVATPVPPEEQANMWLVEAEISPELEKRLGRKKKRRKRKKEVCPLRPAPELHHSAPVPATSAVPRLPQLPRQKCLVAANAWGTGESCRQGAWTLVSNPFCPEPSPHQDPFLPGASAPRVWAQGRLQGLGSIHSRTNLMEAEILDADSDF

[2] = target: Protein smoothened (Mus musculus) (UniProt P56726); test: Antagonist activity at SMO in mouse NIH3T3 cells preincubated for 2 hrs followed by SAG stimulation and measured after 24 hrs in presence of GDC0449 by Bright-Glo luciferase assay; settings: time 26.0 hrs
[3] = target: Protein smoothened (Mus musculus) (UniProt P56726); test: Agonist activity at SMO in mouse NIH3T3 cells assessed as fluorescent intensity of ciliary SMO incubated for 12 hrs by fluorescence method; settings: filed as agonist
[4] = target: Protein smoothened (Mus musculus) (UniProt P56726); test: Agonist activity at SMO in mouse NIH3T3 cells assessed as induction of SMO accumulation in primary cilia incubated for 12 hrs by fluorescence method; settings: filed as agonist
[5] = target: Protein smoothened (Mus musculus) (UniProt P56726); test: Agonist activity at SMO in mouse NIH3T3 cells assessed as induction of SMO accumulation in primary cilia incubated for 12 hrs by AlexaFluor 488/ DAPI staining based immunofluorescence method; settings: filed as agonist
[6] = target: Protein smoothened (Mus musculus) (UniProt P56726); test: Agonist activity at SMO in mouse NIH3T3 cells preincubated for 2 hrs followed by SAG stimulation and measured after 24 hrs in presence of GDC0449 by Bright-Glo luciferase assay; settings: filed as agonist, time 26.0 hrs
[7] = target: Protein smoothened (Mus musculus) (UniProt P56726); test: Antagonist activity at SMO in mouse NIH3T3 cells preincubated for 2 hrs followed by ShhN stimulation and measured after 24 hrs in presence of GDC0449 by Bright-Glo luciferase assay; settings: filed as antagonist, time 26.0 hrs

| Compound | Activity [1] | Activity [2] | Activity [3] | Activity [4] | Activity [5] | Activity [6] | Activity [7] |
| --- | --- | --- | --- | --- | --- | --- | --- |
| CC(O)(CCCCCCOCCOCc1cn(CCOCCS(=O)(=O)c2ccc(C(=O)Nc3ccc(Cl)c(-c4ccccn4)c3)c(Cl)c2)nn1)C1CC[C@H]2[C@@H]3CC=C4C[C@@H](O)CC[C@]4(C)[C@H]3CC[C@]12C (stereo partly drawn) | inactive | – | – | – | – | – | – |
| CC(O)(CCCCCCOCc1cn(CCOCCS(=O)(=O)c2ccc(C(=O)Nc3ccc(Cl)c(-c4ccccn4)c3)c(Cl)c2)nn1)C1CC[C@H]2[C@@H]3CC=C4C[C@@H](O)CC[C@]4(C)[C@H]3CC[C@]12C (stereo partly drawn) | inactive | – | – | – | – | – | – |
| CC(C)CCC[C@](C)(O)[C@H]1CC[C@H]2[C@@H]3CC=C4C[C@@H](O)CC[C@]4(C)[C@H]3CC[C@@]21C | – | inactive | Active | Active | Active | Active | Active |
